From patent EP0802900B1, “ANTIARRHYTHMIC (S)-ENANTIOMERS OF METHANESULFONAMIDES” (priority 1995, dated 1996)
Like-named read-outs stand apart in the source and are kept apart here.

Assays:
[1] = system: methoxamine treated rabbits; test: Early after depolarizations (EAD) and polymorphic ventricular tachycardia (PVT) in methoxamine treated anesthetized rabbits; assay type: in vivo, New Zealand White rabbits; conditions: for EAD: Magnitude of the maximum early after depolarization amplitude as a percent of the monophasic action potential amplitude (APA) / MAPD90: Maximum increase in the ventricular monophasic action potential duration from the methoxamine infusion baseline, measured at 90% repolarization / PVT: Ratio of the number of animals that developed polymorphic ventricular tachycardia to the total number of animals evaluated / QTc: Maximum increase in QTc interval from the methoxamine infusion baseline: continuous intravenous infusion over 1 hour, methoxamine 10 µg/kg/minute
Description: The Formula I compounds were evaluated for their ability to produce early after depolarizations (EAD) and polymorphic ventricular tachycardia (PVT) in methoxamine treated rabbits. The method used was as follows:
Male New Zealand White rabbits (2.5 - 3.5 kg,) were pretreated with subcutaneous morphine sulfate (5 mg/kg) 30 minutes prior to anesthesia. Anesthesia was induced by infusion of α-chloralose (90 - 120 mg/kg) through a marginal ear vein over a period of 20 to 30 minutes. A tracheotomy was performed and the rabbit was respirated with room air (5 - 6 cc/kg) using a small animal ventilator (Columbus Instruments, Columbus, OH). Respiration rate, and tidal volume were adjusted, and supplemental oxygen administered to maintain arterial blood gases and pH within normal physiologic ranges. Catheters were placed in a jugular vein and carotid artery for administration of drugs, and measurement of arterial blood pressure, respectively. A 4 French monophasic action potential catheter was introduced through a jugular vein for monitoring of right ventricular monophasic action potential duration which was measured at 90% repolarization (MAPD90), A lead II ECG and arterial blood pressure were monitored throughout the experiments.
All records were obtained on a multichannel recorder (Gould ES 2000, Cleveland, OH) and experiments were continuously recorded on FM magnetic tape (TEAC 501, Montebello, CA) for subsequent playback and analysis.
Following experimental preparation, the rabbits were allowed to equilibrate for 10 minutes before baseline measurements of heart rate, aortic blood pressure, and QTc interval were made. During the equilibration period, monophasic action potentials were monitored and the catheter adjusted to produce action potentials with a stable amplitude. Following baseline measurements, the α1 agonist methoxamine was infused at a rate of 10 µg/kg/minute at an infusion volume of 12.0 ml/hr. After 15 minutes of methoxamine administration, intravenous infusion of saline (vehicle control) or a class III agent was begun. All agents were administered as a continuous infusion over a 1 hour period. Measurement of heart rate, aortic blood pressure. QTc interval (as defined below), and MAPD90 were repeated at several time points during drug administration to provide dose-response relationships. QTc and MAPD90 were also monitored to insure that maximal class III effects on these parameters had been achieved.
Total accumulated dose at the first incidence of PVT was also measured. Repolarization arrhythmias were characterized as early after depolarizations and extrasystoles during repolarization which produced extrasystoles in lead II ECG. PVT was considered to have occurred if 3 or more closely coupled repetitive extrasystoles with a twisting or torsioning QRS morphology were observed.
QT intervals were corrected for heart rate changes using the formula QTc = QT/square root R-R interval. EADs were compared between treatment groups at stable monophasic action potential amplitudes (APA) and are reported as a percent of the APA.
Examples of Formula I compounds evaluated in this manner are collected in Table II. A measure of Class III antiarrhythmic activity is indicated by an increase in QTc and MAPD90. The proarrhythmic potential is indicated by the incidence and magnitude of the EADs and by the ratio of the incidence of PVT to the total number of animals tested. The corresponding data for ibutilide, a compound of U.S. Patent 5,155,268, and the racemc forms Examples (R.S) (compounds of PCT WO 91/01299) are shown for comparison.

rabbit papillary muscle = test: Electrophysiological activity in isolated, perfused rabbit cardiac tissue (effective refractory period); set-up: species or system New Zealand White rabbits; conditions: drug concentration of 10^-5M; for activation at 10 µM: Oryctolagus cuniculus
Description: According to Scheme 1, in Step I, (4-methanesulfonylamino)-γ-oxobenzenebutanoic acid (II, prepared as described in EP 164 865) is convened to the N-ethylamide (III). Standard amide forming reagents such as dicyclohexylcarbodiimide or preferably isobutyl chloroformate can be used for this purpose. In Step II the ketone of III is reduced with the chiral reagent (-)-B-chlorodiisopinocamphenylborane in tetrahydrofuran. The reaction is carried out below 0°C and preferably at -25 to -35°C. A nonaqueous work up is used to facilitate isolation of the water soluble product. The (S)-(-) enantiomer of the chiral alcohol is obtained. Purification of this alcohol by recrystallization from acetonitrile, methanol, ethanol, tert-butyl methyl ether or mixtures thereof gives IV with high enantiomeric purity. In Step III the amide of IV is reduced with sodium bis-(2-methoxyethoxy)aluminum hydride in tetrahydrofuran at 24°C. A neutral nonaqueous work up is employed to facilitate isolation of the water soluble product (V). Alkylation of V with appropriately substituted alkyl bromides (R3CH2Br) to give the compounds (I) of this invention is accomplished in Step IV. The preferred conditions for this reaction employ acetonitrile as solvent and the weakly basic sodium bicarbonate to neutralize the hydrogen bromide generated by the reaction. The reaction is usually carried out at the reflux temperature (81°C). [drawing 2] The Formula I compounds were evaluated for electrophysiological activity in an isolated, perfused rabbit cardiac tissue system. The method used was as follows:
New Zealand White rabbits of either sex (1.5-2.0 kg) were anesthetized and their hearts removed. The heart was immersed in ice cold perfusate while the right atria (RA), papillary muscles (PAP), and right ventricular muscle strips (RV) were isolated. The perfusate was continuously oxygenated with 95% oxygen and 5% carbon dioxide and contained the following in mM concentrations: NaCI 118.0; KCl 5.4; NaHCO3 25.0; MgCl2 1.2: KH2PO4 1.0; CaCl2 2.4; glucose […] and pyruvic acid 2.0. During hypoxic conditions the perfusate was exposed to a mixture of 83% nitrogen, 10% carbon dioxide and 7% oxygen. The pH during normoxia was approximately 7.4 and dropped to approximately 7.2 during hypoxic conditions.
The tissues were individually mounted on a plexiglass holder containing platinum stimulating electrodes and suspended in a 100 ml bath maintained at 30°C by a circulating heat pump. All tissues were attached by silk suture to a force-displacement transducer and a tissue-dependent preload of 500-1000 mg was applied. RA were allowed to contract spontaneously. RV and PAP were stimulated at 2X threshold with 4 msec rectangular pulses at a frequency of 1 and 3 Hz. (Effective refractory period measurements percent increment over control are ERPI and ERP3, conduction time measurements are CT1 and CT3). Between measurements those tissues were stimulated at a resting pace of 2 Hz. Each tissue served as its own baseline control and was allowed an equilibration period of two hours prior to experiments. During this period the perfusate was changed every 10-15 minutes.
Working solutions of the drugs were prepared by dissolving the drugs in distilled water and one drop of NaOH/ml to aid in dissolution (pH 9.4).
Measurements were made on each set of tissues after exposure to 10^-7, 10^-6, or 10^-5M drug for 15 minutes; and 10^-5M drug under hypoxic conditions for 15 minutes.
Automaticity (RATE), force of contraction (FOC) and threshold were measured directly on a polygraph. The ERP of cardiac tissues by definition is the longest coupling interval between the basic drive (S1) and the premature impulse (S2) that fails to propagate through the tissue. The S2 stimulus was introduced after every eighth Sl which allowed time for stabilization of refractoriness. Refractory period measurements were made via a digital timing circuit. […]

[2] = value in parentheses in EAD column
[3] = pacing rate of 1 Hz, read-out: ERP1: percent increase in the effective refractory period over control values
[4] = pacing rate of 3 Hz, read-out: ERP3: percent increase in the effective refractory period over control values

Compound: CCN(CCCCCCCF)CCCC(O)c1ccc(NS(C)(=O)=O)cc1 (racemic) [(R,S) 1]
- EAD: Magnitude of the maximum early after depolarization amplitude as a percent of the monophasic action potential amplitude (APA) [1]: 52%
- MAPD90: Maximum increase in the ventricular monophasic action potential duration from the methoxamine infusion baseline, measured at 90% repolarization [1]: +128 m sec
- PVT: Ratio of the number of animals that developed polymorphic ventricular tachycardia to the total number of animals evaluated [1]: 1/6
- QTc: Maximum increase in QTc interval from the methoxamine infusion baseline [1]: +143 m sec
- Total accumulated dose of test compound when the maximum EAD was measured [1, 2]: 0.5 mg/kg
- Total accumulated dose at the first incidence of PVT ([1]; value in parentheses in PVT): 2 mg/kg

Compound: CCN(CCCCCC(C)F)CCCC(O)c1ccc(NS(C)(=O)=O)cc1 (racemic) [(R,S) 2]
- EAD: Magnitude of the maximum early after depolarization amplitude as a percent of the monophasic action potential amplitude (APA) [1]: 63%
- MAPD90: Maximum increase in the ventricular monophasic action potential duration from the methoxamine infusion baseline, measured at 90% repolarization [1]: +141 m sec
- PVT: Ratio of the number of animals that developed polymorphic ventricular tachycardia to the total number of animals evaluated [1]: 3/6
- QTc: Maximum increase in QTc interval from the methoxamine infusion baseline [1]: +166 m sec
- Total accumulated dose of test compound when the maximum EAD was measured [1, 2]: 1 mg/kg
- Total accumulated dose at the first incidence of PVT ([1]; value in parentheses in PVT): 0.2 mg/kg

Compound: CCN(CCCCCC(C)(C)F)CCCC(O)c1ccc(NS(C)(=O)=O)cc1 (racemic) [(R,S) 3]
- EAD: Magnitude of the maximum early after depolarization amplitude as a percent of the monophasic action potential amplitude (APA) [1]: 35%
- MAPD90: Maximum increase in the ventricular monophasic action potential duration from the methoxamine infusion baseline, measured at 90% repolarization [1]: +96 m sec
- PVT: Ratio of the number of animals that developed polymorphic ventricular tachycardia to the total number of animals evaluated [1]: 1/6
- QTc: Maximum increase in QTc interval from the methoxamine infusion baseline [1]: +136 m sec
- Total accumulated dose of test compound when the maximum EAD was measured [1, 2]: 0.25 mg/kg
- Total accumulated dose at the first incidence of PVT ([1]; value in parentheses in PVT): 0.2 mg/kg

Compound: CCN(CCCCCC(C)(C)F)CCC[C@H](O)c1ccc(NS(C)(=O)=O)cc1 [Example 3, (S)-(-)-N-[4-[4-[Ethyl(6-fluoro-6-methylheptyl)amino]-1-hydroxybutyl]phenyl]-methanesulfonamide]
- activation at 10 µM (rabbit papillary muscle; [3]): 21.4%
- activation at 10 µM (rabbit papillary muscle; [4]): 25.4%
- EAD: Magnitude of the maximum early after depolarization amplitude as a percent of the monophasic action potential amplitude (APA) [1]: 0%
- MAPD90: Maximum increase in the ventricular monophasic action potential duration from the methoxamine infusion baseline, measured at 90% repolarization [1]: +75 m sec
- PVT: Ratio of the number of animals that developed polymorphic ventricular tachycardia to the total number of animals evaluated [1]: 0/16
- QTc: Maximum increase in QTc interval from the methoxamine infusion baseline [1]: +82 m sec

Compound: CCCCCCCN(CC)CCCC(O)c1ccc(NS(C)(=O)=O)cc1 (stereo not drawn) [Ibutilide, ibutilide]
- activation at 10 µM (rabbit papillary muscle; [3]): 18%
- activation at 10 µM (rabbit papillary muscle; [4]): 15.8%
- MAPD90: Maximum increase in the ventricular monophasic action potential duration from the methoxamine infusion baseline, measured at 90% repolarization [1]: +114 m sec
- QTc: Maximum increase in QTc interval from the methoxamine infusion baseline [1]: +95 m sec
- Total accumulated dose at the first incidence of PVT ([1]; rabbit, in vivo): 1 mg/kg
- Total accumulated dose of test compound when the maximum EAD was measured ([1]; rabbit, in vivo): 4 mg/kg

Compound: (S)-(-)-N-[4-[4-[Ethyl(6-fluoroheptyl)amino]-1-hydroxybutyl]phenyl]methanesulfonamide, (E)-2-Butenedioate (2:1 salt) [Example 2]
- ERP1: percent increase in the effective refractory period over control values (rabbit papillary muscle; pacing rate of 1 Hz): 30.7%
- ERP3: percent increase in the effective refractory period over control values (rabbit papillary muscle; pacing rate of 3 Hz): 8.7%
- EAD: Magnitude of the maximum early after depolarization amplitude as a percent of the monophasic action potential amplitude (APA) [1]: 0%
- MAPD90: Maximum increase in the ventricular monophasic action potential duration from the methoxamine infusion baseline, measured at 90% repolarization [1]: +88 m sec
- PVT: Ratio of the number of animals that developed polymorphic ventricular tachycardia to the total number of animals evaluated [1]: 0/16
- QTc: Maximum increase in QTc interval from the methoxamine infusion baseline [1]: +119 m sec

Compound: (S)-(-)-N-[4-[4-[Ethyl(7-fluoroheptyl)amino]-1-hydroxybutyl]phenyl] methanesulfonamide, (E)-2-Butenedioate (2:1 salt) [Example 1]
- ERP1: percent increase in the effective refractory period over control values (rabbit papillary muscle; pacing rate of 1 Hz): 43.5%
- ERP3: percent increase in the effective refractory period over control values (rabbit papillary muscle; pacing rate of 3 Hz): 26.1%
- EAD: Magnitude of the maximum early after depolarization amplitude as a percent of the monophasic action potential amplitude (APA) [1]: 0%
- MAPD90: Maximum increase in the ventricular monophasic action potential duration from the methoxamine infusion baseline, measured at 90% repolarization [1]: +70 m sec
- PVT: Ratio of the number of animals that developed polymorphic ventricular tachycardia to the total number of animals evaluated [1]: 0/16
- QTc: Maximum increase in QTc interval from the methoxamine infusion baseline [1]: +112 m sec
